# Legend:
# [1] = tested on: isolated smooth muscle cells from the rabbit IAS; experiment: Acetylcholine-induced contraction of isolated IAS smooth muscle cells (decrease in cell length); assay type: cell-based; settings: for contraction, percent decrease in cell length from control: 10^−7 M acetylcholine, HEPES buffer; for decrease in cell length: acetylcholine, 0 Ca2+/2 mM EGTA HEPES buffer
# Excerpt: Smooth muscle cells were isolated from the internal anal sphincter (IAS) of New Zealand White rabbits as described previously (Bitar et al., Am J Physiol 260: G537-G542, 1991; Bitar et al., Am J Physiol 242: G400-G407, 1982). Briefly, the IAS, consisting of the most distal 3 mm of the circular muscle layer, ending at the junction of skin and mucosa, was removed by sharp dissection. The sphincter was rapidly cleaned and striped of connective tissue in ice cold carbonated Krebs solution containing 2% penicillin-streptomycin. The tissue was cut into small pieces and transferred to a 100 mm plate containing 15 ml of HEPES buffer (pH 7.4; NaCl (115 mM), KCl (5.7 mM), KH2PO4 (2.0 mM), HEPES (24.6 mM), CaCl2 (1.9 mM), MgCl2 (0.6 mM), glucose (5.6 mM), 0.01% soybean trypsin inhibitor, and 0.184 (wt/vol) DMEM) with 0.1% collagenase type II (Worthington Biochemical Corp., Lakewood, N.J.) for digestion in an incubator (37° C. with 5% CO2) for 1 hour. Fresh HEPES buffer (15 ml) with collagenase was added and the contents of the plate were mechanically dissociated using a 10 ml pipette and incubated for 1 additional hour. After the second digestion period, the cells were collected, centrifuged at 800×g for 10 minutes and the supernatant discarded. The cells were washed (3×) a to ensure removal of excess collagenase and ultimately re-suspended in either HEPES buffer or 0 Ca^2+/2 mM EGTA HEPES buffer (HEPES without CaCl2 and containing 2 mM EGTA). To determine the effect of acetylcholine on contraction of isolated muscle cells, acetylcholine (10^−7 M) was added to a suspension of isolated smooth muscle cells for 30 seconds or 4 minutes with untreated cells as controls. The reaction was stopped and cells were fixed by the addition of 0.1 ml of acrolein at a final concentration of 0.1%. Individual cell lengths were measured by computerized image micrometry (Bitar et al., Am J Physiol 242: G400-G407, 1982. Bitar et al., Science 216: 531-533, 1982). The length of cells in the control state or after addition of acetylcholine was obtained by measuring 30-50 cells encountered randomly in successive microscopic fields from each of three separate experiments. The contractile response is defined as the decrease in the average length of the cells counted and is expressed as the percent change from the control length.
# [2] = tested on: association of actin with myosin in sphincteric smooth muscle cells; experiment: Immunoprecipitation/immunoblot: acetylcholine-induced association of actin with myosin; assay type: cell-based, rat; settings: 0.1 μM acetylcholine
# Description: (§1) Decreased association of actin with myosin and decreased association of tropomyosin with HSP27 in sphincteric smooth muscle cells from old rats (28-33 month old) was observed when compared to adult counterparts (18 months old). Whole cell lysates (WCL) from acetylcholine (0.1 μM) stimulated and unstimulated sphincteric smooth muscle cells of adult and old rats were extracted and immunoprecipitated as described previously (Somara et al, Amer. J. Physiol. 286(6): C1290-1301, 2004). Briefly, actin was immunoprecipited using an anti-actin antibody followed by immunoblotting with an anti-myosin antibody. […] To further investigate phospho-HSP27-induced reinstatement of smooth muscle cell contractile function, sphincter smooth muscle cells isolated from old rats IAS were transfected with phosphomimic-HSP27 as described previously. Whole cells lysates were extracted and immunoprecipitated as described previously (Somara et al, Amer. J. Physiol. 286(6): C1290-1301, 2004).
# [3] = tested on: association of tropomyosin with HSP27 in sphincteric smooth muscle cells; experiment: Immunoprecipitation/immunoblot: acetylcholine-induced association of tropomyosin with HSP27; assay type: cell-based, rat; settings: 0.1 μM acetylcholine
# Description: as §1
# [4] = tested on: rat IAS cells; experiment: Acetylcholine-induced contraction of isolated sphincteric smooth muscle cells of adult and old rats; assay type: cell-based; settings: for cell population with less than 80 μM cell length: 30 second stimulation
# Description: To determine the effect of acetylcholine on contraction of isolated muscle cells, acetylcholine (10^−7 M) was added to a suspension of isolated smooth muscle cells for 30 seconds or 4 minutes with untreated cells as controls. The reaction was stopped and cells were fixed by the addition of 0.1 ml of acrolein at a final concentration of 0.1%. Individual cell lengths were measured by computerized image micrometry (Bitar et al., Am J Physiol 242: G400-G407, 1982. Bitar et al., Science 216: 531-533, 1982). The length of cells in the control state or after addition of acetylcholine was obtained by measuring 30-50 cells encountered randomly in successive microscopic fields from each of three separate experiments. The contractile response is defined as the decrease in the average length of the cells counted and is expressed as the percent change from the control length. Acetylcholine-induced contraction of isolated sphincteric smooth muscle cells was defined as the percent decrease in cell length compared to control. […] In old rats, 10^−7M acetylcholine-induced contraction at 30 seconds was approximately 3-fold less forceful (12.8±4.4%) than adult rat cells. […] In addition, after acetylcholine-induced contraction, there was a preponderance of longer cells and in old rats (24% above 80 μm) when compared to adult counterparts (17% above 80).
# [5] = tested on: bioengineered colon smooth muscle rings; experiment: Isometric force of bioengineered colon smooth muscle rings; assay type: cell-based, rabbit
# Description: To develop a three dimensional physiological model of the smooth muscle cells in vitro, isolated colonic smooth muscle cells were used. Smooth muscle cells isolated from the colon of rabbits were seeded in a fibrin-based tissue construct as described in detail in Example 2. In this construct, the smooth muscle cells migrated and self-assembled in circumferential alignment. As the cells proliferated, the fibrin gel shrunk and contracted around a 5 mm diameter SYLGARD mold, resulting in a 3-D cylindrical ring of colonic tissue (smooth muscle ring). […] Maximal ΔP induced by acetylcholine stimulation was 17.8 μN, resulting in a specific force (sΔP) of […].
smiles,measurement,setting,value
CC(=O)OCC[N+](C)(C)C [acetylcholine],"contraction, percent decrease in cell length from control",[1]; 30 seconds,28.85±3.20%
same,"contraction, percent decrease in cell length from control",[1]; 4 minutes,27.09±4.43%
same,decrease in cell length,[1]; 30 seconds,0.5±4.47%
same,decrease in cell length,[1]; 4 minutes,4±3.91%
same,acetylcholine-induced association of actin with myosin,"[2]; adult rats, 30 seconds",243.70±8.20%
same,acetylcholine-induced association of actin with myosin,"[2]; adult rats, 4 minutes",274.34±10.43%
same,acetylcholine-induced association of actin with myosin,"[2]; old rats, 30 sec",175.32±10.12%
same,acetylcholine-induced association of actin with myosin,"[2]; old rats, 4 minutes",231.79±10.45%
same,acetylcholine-induced association of tropomyosin with HSP27,"[3]; adult rats, 30 seconds",218.67±5.48%
same,acetylcholine-induced association of tropomyosin with HSP27,"[3]; adult rats, 4 minutes",268.39±6.38%
same,acetylcholine-induced association of tropomyosin with HSP27,"[3]; old rats, 30 sec",149.93±8.60%
same,acetylcholine-induced association of tropomyosin with HSP27,"[3]; old rats, 4 minutes",223.21±7.46%
same,fold less forceful contraction in old than adult rat cells,"[4]; 10^−7 M acetylcholine, 30 seconds",approximately 3 fold
same,"contraction, percent decrease in cell length compared to control","[4]; adult rat IAS cells, 10^−7 M acetylcholine, 30 seconds",44.7±1.34%
same,"contraction, percent decrease in cell length compared to control","[4]; adult rat IAS cells, 10^−7 M acetylcholine, 4 minutes",40.65±1.43%
same,cell population with less than 80 μM cell length,"[4]; adult rat IAS cells, 10^−7 M acetylcholine",89%
same,longer cells above 80 after acetylcholine-induced contraction,[4]; adult rats,17%
same,"contraction, percent decrease in cell length compared to control","[4]; old rat IAS cells, 10^−7 M acetylcholine, 30 seconds",12.8±4.4%
same,"contraction, percent decrease in cell length compared to control","[4]; old rat IAS cells, 10^−7 M acetylcholine, 4 minutes",16.99±6.07%
same,cell population with less than 80 μM cell length,"[4]; old rat IAS cells, 10^−7 M acetylcholine",71%
same,longer cells above 80 μm after acetylcholine-induced contraction,[4]; old rats,24%
same,maximal ΔP induced by acetylcholine stimulation,[5],17.8 μN
